# Source: US8809336B2, “Ortho-condensed pyridine and pyrimidine derivatives (e.g., purines) as protein kinases inhibitors” (Astex Therapeutics Limited, priority 2004, dated 2014)
# Where two headings read alike, the source gives them in different places.
# Experiments:
# PKA catalytic domain = target: T1, PKA catalytic domain (Homo sapiens, UniProt P17612); test: Measurement of PKA kinase inhibitory activity (IC50), 33P-ATP filter plate assay; assay type: biochemical; conditions: 1 nM enzyme, 40 μM ATP, 20 minutes; read-out: IC50, inhibition of PKA activity
# T1 construct: using the PKA catalytic domain from Upstate Biotechnology (#14-440); purchased Upstate Biotechnology 14-440
# Method: A final concentration of 1 nM enzyme is used in a buffer that includes 20 mM MOPS pH 7.2, 40 μM ATP/γ^33P-ATP and […] substrate. Compounds are added in dimethylsulphoxide (DMSO) solution to a final DMSO concentration of 2.5%. The reaction is allowed to proceed for 20 minutes before addition of excess orthophosphoric acid to quench activity. Unincorporated γ^33P-ATP is then separated from phosphorylated proteins on a Millipore MAPH filter plate. The plates are washed, scintillant is added and the plates are then subjected to counting on a Packard Topcount.
# PKB-PIF fusion protein = target: T2, PKB-PIF fusion protein (Homo sapiens, UniProt P31751); test: Measurement of PKB kinase inhibitory activity (IC50), 33P-ATP phosphocellulose filter assay; assay type: biochemical
# T2 construct: PIF (fusion partner); made in house
# T2 sequence (P31751 with tags, fused parts or gaps limits assumed): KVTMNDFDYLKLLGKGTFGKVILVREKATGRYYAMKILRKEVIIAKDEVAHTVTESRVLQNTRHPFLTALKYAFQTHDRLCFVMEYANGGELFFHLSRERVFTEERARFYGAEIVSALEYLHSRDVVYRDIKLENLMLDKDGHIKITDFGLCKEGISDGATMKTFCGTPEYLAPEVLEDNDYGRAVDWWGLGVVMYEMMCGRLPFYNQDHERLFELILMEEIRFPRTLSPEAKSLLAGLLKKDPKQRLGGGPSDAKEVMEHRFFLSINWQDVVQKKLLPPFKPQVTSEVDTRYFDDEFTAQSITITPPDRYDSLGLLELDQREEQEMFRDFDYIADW
# Method: The inhibition of protein kinase B (PKB) activity by compounds can be determined essentially as described by Andjelkovic et al. (Mol. Cell. Biol. 19, 5061-5072 (1999)) but using a fusion protein described as PKB-PIF and described in full by Yang et al (Nature Structural Biology 9, 940-944 (2002)). […] A final concentration of 0.6 nM enzyme is used in a buffer that includes 20 mM MOPS pH 7.2, 30 μM ATP/γ^33P-ATP and 25 μM substrate.
# Compounds are added in DMSO solution to a final DMSO concentration of 2.5%. The reaction is allowed to proceed for 20 minutes before addition of excess orthophosphoric acid to quench activity. The reaction mixture is transferred to a phosphocellulose filter plate where the peptide binds and the unused ATP is washed away. After washing, scintillant is added and the incorporated activity measured by scintillation counting.
# The % inhibition of the PKB activity is calculated and plotted in order to determine the concentration of test compound required to inhibit 50% of the PKB activity (IC50).
# [1] = 0.6 nM enzyme, 30 μM ATP, 25 μM AKTide-2T substrate, 20 minutes, read-out: IC50, inhibition of PKB activity
IC50 (PKA catalytic domain) [µM],IC50 (PKB-PIF fusion protein; [1]) [µM],Compound,IC50 (PKB-PIF fusion protein) [µM]
< 10,< 10,"CNC1CCN(c2ncnc3[nH]cnc23)CC1 [Example 1, Methyl-[1-(9H-purin-6-yl)-piperidin-4-yl]-amine]",–
–,< 10,"c1ccc(CNC2CCN(c3ncnc4[nH]cnc34)CC2)cc1 [Example 2, Benzyl-[1-(9H-purin-6-yl)-piperidin-4-yl]-amine]",–
< 50,< 10,"NC1CCN(c2ncnc3[nH]c(=O)[nH]c23)CC1 [Example 4, 6-(4-Aminopiperidin-1-yl)-7,9-dihydropurin-8-one]",–
< 50,< 50,"O=c1[nH]c2ncnc(N3CCC(O)(Cc4ccccc4)CC3)c2[nH]1 [Example 5, 6-(4-Benzyl-4-hydroxypiperidin-1-yl)-7,9-dihydropurin-8-one]",–
< 50,< 50,"O=c1[nH]c2ncnc(N3CCN[C@H](COCc4ccccc4)C3)c2[nH]1 [Example 7, (3S)-6-(3-Benzyloxymethylpiperazin-1-yl)-7,9-dihydropurin-8-one]",–
< 10,< 10,"O=c1[nH]c2ncnc(N3CCC(NCCc4ccccc4)CC3)c2[nH]1 [Example 8, 6-(4-Phenethylaminopiperidin-1-yl)-7,9-dihydro-purin-8-one]",–
< 50,< 50,"O=c1[nH]c2ncnc(N3CCC(NCc4ccccc4Cl)CC3)c2[nH]1 [Example 9, 6-[4-(2-Chlorobenzylamino)-piperidin-1-yl]-7,9-dihydro-purin-8-one]",–
< 10,< 10,"O=c1[nH]c2ncnc(N3CCC(NCc4cccc(Cl)c4)CC3)c2[nH]1 [Example 10, 6-[4-(3-Chlorobenzylamino)-piperidin-1-yl]-7,9-dihydro-purin-8-one]",–
< 10,< 10,"NC1CCN(c2ncnc3[nH]ncc23)CC1 [Example 11, 1-(1H-Pyrazolo[3,4-d]pyrimidin-4-yl)-piperidin-4-ylamine]",–
< 10,< 10,"NC1CCN(c2ncnc3[nH]ccc23)CC1 [Example 12, 1-(7H-Pyrrolo[2,3-d]pyrimidin-4-yl)-piperidin-4-ylamine]",–
–,< 10,"NCC1(c2ccc(Cl)cc2)CCN(c2ncnc3[nH]cnc23)CC1 [Example 15, C-[4-(4-Chloro-phenyl)-1-(9H-purin-6-yl)-piperidin-4-yl]-methylamine]",–
–,< 10,"NC1(Cc2ccccc2)CCN(c2ncnc3[nH]cnc23)CC1 [Example 16, 4-Benzyl-1-(9H-purin-6-yl)piperidin-4-ylamine]",–
–,< 10,"NCC1(c2ccc(Cl)cc2)CCN(c2ccnc3[nH]ccc23)CC1 [Example 21, C-[4-(4-Chlorophenyl)-1-(1H-pyrrolo[2,3-b]pyridin-4-yl)piperidin-4-yl]methylamine]",–
–,< 10,"CCn1c(=O)[nH]c2ncnc(N3CCC(CN)(c4ccc(Cl)cc4)CC3)c21 [Example 22, 6-[4-Aminomethyl-4-(4-chlorophenyl)piperidin-1-yl]-7-ethyl-7,9-dihydro-purin-8-one]",–
–,< 10,"NCC1(Cc2ccc(Cl)cc2)CCN(c2ncnc3[nH]cnc23)CC1 [Example 23, C-[4-(4-Chlorobenzyl)-1-(9H-purin-6-yl)piperidin-4-yl]methylamine]",–
–,–,"N#CC1(c2ccc(Cl)cc2)CCN(c2ncnc3[nH]ccc23)CC1 [Example 24, 4-(4-Chlorophenyl)-1-(7H-pyrrolo[2,3-d]pyrimidin-4-yl)piperidine-4-carbonitrile]",< 10
–,< 10,"NCC1(c2cccc(Cl)c2)CCN(c2ncnc3[nH]cnc23)CC1 [Example 27, C-[4-(3-Chlorophenyl)-1-(9H-purin-6-yl)piperidin-4-yl]methylamine]",–

IC50 (PKA catalytic domain) [µM],IC50 (PKB-PIF fusion protein; [1]) [µM],Compound,IC50 (PKB-PIF fusion protein) [µM]
–,< 10,"NCC1(c2ccc(Cl)c(Cl)c2)CCN(c2ncnc3[nH]cnc23)CC1 [Example 29, C-[4-(3,4-Dichlorophenyl)-1-(9H-purin-6-yl)piperidin-4-yl]methylamine]",–
–,< 10,NCC1(c2ccc(OC(F)(F)F)cc2)CCN(c2ncnc3[nH]ccc23)CC1 [Example 30],–
–,< 10,"NCC1(c2ccc(C(F)(F)F)cc2)CCN(c2ncnc3[nH]cnc23)CC1 [Example 33, C-[1-(9H-Purin-6-yl)-4-(4-trifluoromethylphenyl)piperidin-4-yl]methylamine]",–
–,< 10,"NCC1(c2cccc(C(F)(F)F)c2)CCN(c2ncnc3[nH]ccc23)CC1 [Example 34, C-[1-(7H-Pyrrolo[2,3-d]pyrimidin-4-yl)-4-(3-trifluoromethylphenyl)piperidin-4-yl]methylamine]",–
–,< 10,"NCC1(c2cccc(C(F)(F)F)c2)CCN(c2ncnc3[nH]cnc23)CC1 [Example 35, C-[1-(9H-Purin-6-yl)-4-(3-trifluoromethylphenyl)piperidin-4-yl]methylamine]",–
–,< 10,"NCC1(c2ccc(F)c(F)c2)CCN(c2ncnc3[nH]ccc23)CC1 [Example 36, C-[4-(3,4-Difluorophenyl)-1-(7H-pyrrolo[2,3-d]pyrimidin-4-yl)piperidin-4-yl]methylamine]",–
–,< 10,"NCC1(c2ccc(F)c(F)c2)CCN(c2ncnc3[nH]cnc23)CC1 [Example 37, C-[4-(3,4-Difluorophenyl)-1-(9H-purin-6-yl)piperidin-4-yl]methylamine]",–
–,< 10,"COc1ccc(C2(CN)CCN(c3ncnc4[nH]cnc34)CC2)cc1 [Example 39, C-[4-(4-Methoxyphenyl)-1-(9H-purin-6-yl)piperidin-4-yl]methylamine]",–
–,< 10,"NCC1(c2ccc(OCc3ccccc3)cc2)CCN(c2ncnc3[nH]cnc23)CC1 [Example 41, C-[4-(4-Benzyloxyphenyl)-1-(9H-purin-6-yl)piperidin-4-yl]methylamine]",–
–,< 10,"CC(C)NCC1(c2ccc(Cl)cc2)CCN(c2ncnc3[nH]ccc23)CC1 [Example 43, [4-(4-Chlorophenyl)-1-(7H-pyrrolo[2,3-d]pyrimidin-4-yl)-piperidin-4-ylmethyl]-isopropylamine]",–
–,< 10,"NCC1(Cc2ccc(Cl)c(Cl)c2)CCN(c2ncnc3[nH]ccc23)CC1 [Example 45, C-[4-(3,4-Dichlorobenzyl)-1-(7H-pyrrolo[2,3-d]pyrimidin-4-yl)piperidin-4-yl]methylamine]",–
–,< 10,"NCC1(Cc2ccc(Cl)c(Cl)c2)CCN(c2ncnc3[nH]cnc23)CC1 [Example 46, C-[4-(3,4-Dichlorobenzyl)-1-(9H-purin-6-yl)piperidin-4-yl]methylamine]",–
–,< 10,"NCC1(Cc2ccc(OC(F)(F)F)cc2)CCN(c2ncnc3[nH]ccc23)CC1 [Example 47, C-[1-(7H-Pyrrolo[2,3-d]pyrimidin-4-yl)-4-(4-trifluoromethoxybenzyl)piperidin-4-yl]methylamine]",–
–,< 10,"NCC1(Cc2ccc(OC(F)(F)F)cc2)CCN(c2ncnc3[nH]cnc23)CC1 [Example 48, C-[1-(9H-Purin-6-yl)-4-(4-trifluoromethoxybenzyl)piperidin-4-yl]methylamine]",–
–,< 10,"NC1(Cc2ccc(Cl)c(Cl)c2)CCN(c2ncnc3[nH]cnc23)CC1 [Example 50, 4-(3,4-Dichlorobenzyl)-1-(9H-purin-6-yl)piperidin-4-yl amine]",–
–,< 10,"NC1(Cc2ccc(OC(F)(F)F)cc2)CCN(c2ncnc3[nH]cnc23)CC1 [Example 52, 1-(9H-Purin-6-yl)-4-(4-trifluoromethoxybenzyl)piperidin-4-ylamine]",–

Compound,IC50 (PKA catalytic domain) [µM],IC50 (PKB-PIF fusion protein; [1]) [µM],IC50 (PKB-PIF fusion protein) [µM]
"O=c1[nH]c2ncnc(N3CCNCC3)c2[nH]1 [Example 6, 6-(Piperazin-1-yl)-7,9-dihydropurin-8-one]",< 10,< 10,–
